Experiments:
Mus musculus [1] = organism: Mus musculus; assay: animal or person; format: functional; conditions: sc
Description: Subcutaneous dose at which 50% of the mouse start to lick their paws later than 10 s using hot plate assay.

Mus musculus [2] = organism: Mus musculus; assay: animal or person; format: functional; conditions: po
Description: Peroral dose at which 50% of the mouse start to lick their paws later than 10 s using hot plate assay.

Mus musculus [3] = organism: Mus musculus; assay: animal or person; format: functional; conditions: in Rattus norvegicus, po, 1 h
Description: Peroral dose inhibiting acetic acid induced writhing 1 hr after administration in 50% of the rats.

Mus musculus [4] = organism: Mus musculus; assay: animal or person; format: functional; conditions: in Rattus norvegicus, sc, 0.5 h
Description: Subcutaneous dose inhibiting acetic acid induced writhing 0.5 hr after administration in 50% of the rats.

Mus musculus [5] = organism: Mus musculus; assay: animal or person; format: functional; conditions: in Rattus norvegicus, sc, 8 h
Description: Subcutaneous dose inhibiting acetic acid induced writhing 8 hr after administration in 50% of the rats.

Mus musculus [6] = organism: Mus musculus; assay: animal or person; format: functional; conditions: in Rattus norvegicus, po, 24 h
Description: Peroral dose inhibiting acetic acid induced writhing 24 hr after administration in 50% of the rats.

Mus musculus [7] = organism: Mus musculus; assay: animal or person; format: functional; conditions: in Rattus norvegicus, po, 8 h
Description: Peroral dose inhibiting acetic acid induced writhing 8 hr after administration in 50% of the rats.

[8] = Levels of homovanillic acid (HVA) in rat brain 2 hour after an intraperitoneal injection dose; format: ADME, tissue-based; conditions: in vivo, ip
Rattus norvegicus [9] = organism: Rattus norvegicus; assay: animal or person; conditions: ip
Description: (§1) Intraperitoneal dose producing a block of avoidance response in 50% of the rats.

Rattus norvegicus [10] = organism: Rattus norvegicus; assay: dose producing 50% of the theoretically obtained maximum catalepsy in rats; format: functional
Mus musculus [11] = assay: Intraperitoneal dose inhibiting acetic acid induced writhing in 50% of mice; format: functional
Rattus norvegicus [12] = organism: Rattus norvegicus
Description: as §1

Mus musculus [13] = organism: Mus musculus; assay: Dose at which 50% of the mouse show not more than one extension movement.; format: functional
[14] = Rattus norvegicus, read-out: ED50
[15] = Mus musculus, ip, read-out: ED50

Row | Structure (SMILES) | HVA level [8] [%] | ED50 (Rattus norvegicus [9]) [mg/kg] | ED50 (Rattus norvegicus [10]; [14]) [mg/kg] | further results
1 | CCCC[C@]1(OC(C)=O)CCN2C[C@H](c3ccccc3)CC[C@H]2C1 | – | – | – | ED50 (Mus musculus [1]): 100 mg/kg; ED50 (Mus musculus [2]): 551 mg/kg; ED50 (Mus musculus [3]): 10 mg/kg
2 | CCCC[C@@]1(OC(C)=O)CCN2C[C@H](c3ccccc3)CC[C@H]2C1 | – | – | – | ED50 (Mus musculus [1]): 1.1 mg/kg; ED50 (Mus musculus [4]): 0.14 mg/kg; ED50 (Mus musculus [5]): 3.8 mg/kg; ED50 (Mus musculus [6]): 69 mg/kg; ED50 (Mus musculus [7]): 4.9 mg/kg
3 | CC[C@]1(O)CCN2C[C@@H](c3ccc(Cl)cc3Cl)CC[C@@H]2C1 | 284 | > 30 | – | –
4 | CC(C)(C)[C@]1(O)CCN2C[C@@H](c3ccccc3Cl)CC[C@@H]2C1 | 449 | 10 | 20.2 | –
5 | C[C@]1(O)CCN2C[C@@H](c3ccc(Cl)cc3Cl)CC[C@@H]2C1 | 157 | > 30 | – | –
6 | CC(C)(C)[C@]1(O)CCN2C[C@@H](c3ccccc3)CC[C@@H]2C1.Cl | 308 | > 30 | – | –
7 | CC(C)(C)[C@]1(O)CCN2C[C@@H](c3ccc(Cl)cc3)CC[C@@H]2C1.Cl | 290 | 13.5 | 16 | –
8 | CCCC[C@@]1(OC(C)=O)CCN2C[C@@H](c3ccccc3)CC[C@@H]2C1.Cl | – | – | – | ED50 (Mus musculus [11]; [15]): > 100 mg/kg
9 | CCCC[C@]1(O)CCN2C[C@@H](c3ccc(Cl)cc3Cl)CC[C@@H]2C1.Cl | 150 | 42 | > 10 | –
10 | CCC(C)[C@]1(O)CCN2C[C@@H](c3ccc(Cl)cc3Cl)CC[C@@H]2C1.Cl (some centres not stated) | 467 | 6.25 | 5.5 | –
11 | Cl.O[C@]1(c2ccccc2)CCN2C[C@@H](c3ccccc3Cl)CC[C@@H]2C1 | 99 | > 30 | – | –
12 | CC(=O)O[C@@]1(C(C)(C)C)CCN2C[C@@H](c3ccccc3)CC[C@@H]2C1.Cl | – | – | – | ED50 (Mus musculus [11]; [15]): 2.6 mg/kg
13 | CC(C)(C)[C@]1(O)CCN2C[C@@H](c3ccc(Cl)c(Cl)c3)CC[C@@H]2C1.Cl | 190 | > 30 | 30 | –
14 | CC(=O)O[C@@]1(c2ccccc2)CCN2C[C@@H](c3ccccc3Cl)CC[C@@H]2C1.Cl | – | – | – | ED50 (Mus musculus [11]; [15]): 2.8 mg/kg
15 | CC(=O)O[C@@]1(C(C)(C)C)CCN2C[C@@H](c3ccc(Cl)cc3Cl)CC[C@@H]2C1.Cl | – | – | – | ED50 (Mus musculus [11]; [15]): 300 mg/kg
16 | CC(C)(C)[C@]1(O)CCN2C[C@@H](c3cccc(Cl)c3)CC[C@@H]2C1.Cl | 103 | > 30 | > 30 | –

Row | Structure (SMILES) | HVA level [8] [%] | ED50 (Rattus norvegicus [9]) [mg/kg] | ED50 (Rattus norvegicus [10]; [14]) [mg/kg] | further results
17 | CC(C)[C@]1(O)CCN2C[C@@H](c3ccc(Cl)cc3Cl)CC[C@@H]2C1.Cl | 280 | 17.5 | 9.2 | –
18 | CC(C)(C)[C@]1(O)CCN2C[C@@H](c3ccc(C(F)(F)F)cc3)CC[C@@H]2C1.Cl | 369 | 18.5 | > 30 | –
19 | CC(=O)O[C@@]1(C(C)(C)C)CCN2C[C@@H](c3ccc(Cl)cc3)CC[C@@H]2C1.Cl | – | – | – | ED50 (Mus musculus [11]; [15]): 4 mg/kg
20 | Cl.O[C@@]1(c2ccccc2)CCN2C[C@@H](c3ccccc3Cl)CC[C@@H]2C1 | 340 | 7 | > 10 | –
21 | CC(C)(C)[C@]1(O)CCN2C[C@@H](c3c(Cl)cccc3Cl)CC[C@@H]2C1.Cl | – | > 30 | > 30 | –
22 | CC(=O)O[C@]1(C(C)(C)C)CCN2C[C@H](c3ccccc3Cl)CC[C@@H]2C1.Cl | – | – | – | ED50 (Mus musculus [11]; [15]): 28 mg/kg
23 | CC(C)(C)[C@]1(O)CCN2C[C@@H](c3ccc(Cl)cc3Cl)CC[C@@H]2C1.Cl (stereo in doubt; 5e) | 557 | – | – | ED50 (Rattus norvegicus [10]): 12.2 mg/kg; ED50 (Rattus norvegicus [12]): 6.4 mg/kg
24 | CC(=O)O[C@@]1(C(C)(C)C)CCN2C[C@@H](c3ccccc3Cl)CC[C@@H]2C1.Cl (stereo in doubt; 23) | – | – | – | ED50 (Mus musculus [11]; [15]): 36 mg/kg
25 | CC(C)(C)[C@]1(O)CCN2C[C@@H](c3ccc(Cl)cc3Cl)CC[C@@H]2C1.Cl (stereo in doubt; (+)-5e) | 283 | – | – | ED50 (Rattus norvegicus [10]): 28.4 mg/kg; ED50 (Rattus norvegicus [12]): >30 mg/kg
26 | CC(C)(C)[C@@]1(O)CCN2C[C@H](c3ccccc3Cl)CC[C@@H]2C1.Cl (stereo in doubt; (+)-5g) | – | – | – | ED50 (Mus musculus [11]): >30 mg/kg
27 | CCCC[C@@]1(O)CCN2C[C@H](c3ccccc3)CC[C@@H]2C1 (stereo in doubt; (+)-19) | – | – | – | ED50 (Mus musculus [11]; [15]): > 30 mg/kg
28 | CC(C)(C)[C@]1(O)CCN2C[C@@H](c3ccc(Cl)cc3Cl)CC[C@@H]2C1.Cl (stereo in doubt; (-)-5e) | 350 | – | – | ED50 (Rattus norvegicus [10]): 4.4 mg/kg; ED50 (Rattus norvegicus [12]): 4.7 mg/kg
29 | CC(C)(C)[C@@]1(O)CCN2C[C@H](c3ccccc3Cl)CC[C@@H]2C1.Cl (stereo in doubt; (-)-5g) | – | – | – | ED50 (Mus musculus [11]): >10 mg/kg
30 | CC(=O)O[C@@]1(C(C)(C)C)CCN2C[C@@H](c3ccccc3Cl)CC[C@@H]2C1.Cl (stereo in doubt; (-)-23) | – | – | – | ED50 (Mus musculus [13]): > 30 mg/kg
31 | CN1CC[C@]23c4c5ccc(O)c4O[C@H]2[C@@H](O)C=C[C@H]3[C@H]1C5.Cl [MORPHINE HYDROCHLORIDE] | – | – | – | ED50 (Mus musculus [1]): 9.6 mg/kg; ED50 (Mus musculus [4]): 0.96 mg/kg; ED50 (Mus musculus [5]): 135 mg/kg; ED50 (Mus musculus [2]): 36 mg/kg; ED50 (Mus musculus [3]): 2.4 mg/kg; ED50 (Mus musculus [6]): > 550 mg/kg; ED50 (Mus musculus [7]): 86 mg/kg
